Patent publication US10160744B2, “Quinoline compounds suitable for treating disorders that respond to the modulation of the serotonin 5-HT6 receptor” (Abbvie Deutschland GmbH & Co. KG, priority 2016, dated 2018)
Counter-ions that a name gives are not always drawn.

Experiments:
h-5-HT6 receptor = molecular target: T1, h-5-HT6 receptor (Homo sapiens, UniProt P50406); test: 5-HT6 receptor binding assay (displacement of [3H]-LSD); conditions: cloned human 5-HT6 receptor, HEK293 membranes, 1 nM [3H]-LSD
T1 construct: expressed in transfected cells
Procedure: Displacement of radioligands binding to the following cloned human receptors
1. Preparation of Membranes by Ultrasonic Treatment and Differential Centrifugation
Cells from stable clonal cell lines expressing the corresponding receptor (5-HT6, α1-adrenergic, dopamine D2 or histamine H1 receptors) were washed with PBS (w/o Ca^++, Mg^++) and harvested in PBS with 0.02% EDTA. The cells were collected by centrifugation at 500 g for 10 min. at 4° C., washed with PBS and centrifuged (500 g, 10 min. 4° C.). The pellets were stored at −80° C. until use. For membrane preparation, the thawed cell pellet was resuspended in ice-cold sucrose buffer (0.25 M sucrose, 10 mM Hepes (pH 7.4), 1 mM Phenylmethylsulfonyl fluoride (PMSF) in DMSO, 5 μg/ml Pepstatin-A, 3 mM EDTA, 0.025% Bacitracin) and homogenized with a Branson Sonifier W-250 (Settings: Timer 4; Output Control 3; Duty Cycle constant; 2 to 3 cycles). Cell disruption was checked with the aid of a microscope. Remaining unbroken cells were pelleted at 1.000 g for 10 min. at 4° C. The sucrose buffer supernatant was then centrifuged at 60.000 g for 1 h at 4° C. (Beckman Ultrazentrifuge XL 80). The pellet was resuspended in 30 ml ice-cold Tris buffer (20 mM TRIS (pH 7.4), 5 μg/ml Pepstatin A, 0.1 mM PMSF, 3 mM EDTA) by pipetting through a 10 ml serological pipet and centrifuged for 1 h at 4° C. at 60.000 g. A final resuspension was performed in a small volume of ice-cold Tris buffer (see above) by pressing through a serological pipet followed by ultrasonic treatment with a Branson Sonifier W-250 (Settings: Timer 1; Output Control 3; Duty Cycle constant; 1 cycle). Protein concentration was determined (BCA-Kit; Pierce) and aliquots stored at −80° C. or in liquid nitrogen for long-term storage.
2. Receptor Binding Experiments
All receptor binding experiments were carried out in the corresponding assay buffer in a total volume of 200 μl in the presence of various concentrations of test compound (10^−5 M to 10^−9 M, tenfold serial dilution, duplicate determinations). The assays were terminated by filtration on polyethylenimine (PEI 0.1% or 0.3%) presoaked Packard Unifilter Plates (GF/C or GF/B) with a Tomtec MachIII U 96 well-plate harvester. After the plates had been dried for 2 h at 55° C. in a drying chamber scintillation cocktail (BetaPlate Scint; PerkinElmer) was added. Radioactivity was measured in a Microbeta Trilux two hours after the addition of the scintillation mixture. Data derived from liquid scintillation counting were analysed by iterative non-linear regression analysis with the use of the Statistical Analysis System (SAS): a program similar to “LIGAND” as described by Munson and Rodbard (Analytical Biochemistry 107, 220-239 (1980).
a) 5-HT6 Receptor Binding Assay
HEK293 cells stably expressing the h-5-HT6 receptor (NCBI Reference Sequence XM 001435) were cultured in RPMI1640 medium supplemented with 25 mM HEPES, 10% fetal calf serum and 1-2 mM glutamine. The membrane preparation was performed as described in section 1. […] Non-specific binding was defined with 1 μM methiothepin. The binding reaction was carried out for 3.5 h at room temperature. During the incubation, the plates were shaken on a plate shaker at 100 rpm and terminated by filtration on Packard Unifilter GF/C (0.1% PEI) plates, followed by 2 wash cycles with ice-cold 50 mM Tris-HCl, 5 mM CaCl2.
Data derived from liquid scintillation counting were analyzed by iterative non-linear regression analysis with the use of the Statistical Analysis System (SAS): a program similar to “LIGAND” as described by Munson and Rodbard (Anal. Biochem. 1980, 107, 220-239). Fitting was performed according to formulae described by Feldman (Anal. Biochem. 1972, 48, 317-338). IC50, nH and Ki values were expressed as geometrical mean.

[1] = Metabolic stability in human liver microsomes (microsomal clearance); assay type: in vitro ADME; conditions: pH 7.4; human liver microsomes 0.25 mg protein/mL, 0.5 μM compound, NADPH, 37° C.; read-out: mClint
Procedure: Samples of the tested compounds (0.5 μM) were preincubated together with human liver microsomes (0.25 mg of microsomal protein/mL) in 0.05 M potassium phosphate buffer of pH 7.4 in microtiter plates at 37° C. for 5 minutes. The reaction was started by adding NADPH (1.0 mM). After 0, 5, 10, 15, 20 and 30 minutes, an aliquot was removed, the reaction was cooled and stopped by adding twice the amount of quench solution consisting of acetonitrile/methanol 1:1, and containing 0.2 μM carbutamide as internal standard. The samples were frozen until analyzed. The remaining concentration of undegraded test substance was determined by liquid chromatography-tandem mass spectrometry (LC-MS/MS). The half-life (t1/2) was determined from the gradient of the ratio of the signal of (test substance/internal standard)/unit time plot, allowing the calculation of the half-life of the test substance, assuming first order kinetics, from the decrease in the concentration of the compound with time. The microsomal clearance (mClint) was calculated as follows: mClint=((ln(2)/t 1/2)/Microsomal Protein Concentration (mg/ml))*1000, leading to the unit of μL/min/mg.

T1 sequence (P50406 whole entry): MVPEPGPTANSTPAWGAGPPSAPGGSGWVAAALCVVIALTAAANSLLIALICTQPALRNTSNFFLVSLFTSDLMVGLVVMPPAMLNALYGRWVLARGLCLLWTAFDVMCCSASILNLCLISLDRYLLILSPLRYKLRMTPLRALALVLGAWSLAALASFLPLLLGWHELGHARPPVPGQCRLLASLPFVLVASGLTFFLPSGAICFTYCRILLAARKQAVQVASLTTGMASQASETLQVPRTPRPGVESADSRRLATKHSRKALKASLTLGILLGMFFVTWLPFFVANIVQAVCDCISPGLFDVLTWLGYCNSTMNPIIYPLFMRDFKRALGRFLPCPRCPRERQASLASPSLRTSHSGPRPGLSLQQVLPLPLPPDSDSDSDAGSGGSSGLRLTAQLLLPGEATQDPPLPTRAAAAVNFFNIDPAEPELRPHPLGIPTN

Structure (SMILES) | Ki (h-5-HT6 receptor) [nM] | microsomal CLint at 0.5 μM [1] [µL/min/mg]
O=S(=O)(c1cccc(F)c1)c1cnc2c(N3CCC[C@H](O)C3)cccc2c1 [Example 27, (3S)-1-[3-(3-Fluorophenyl)sulfonyl-8-quinolyl]piperidin-3-ol] | < 10 | 30 to 60
O=S(=O)(c1ccccc1)c1cnc2c(N3C[C@@H](O)[C@@H](O)C3)cccc2c1 [Example 42, (3R,4S)-1-[3-(Benzenesulfonyl)-8-quinolyl]pyrrolidine-3,4-diol] | < 10 | < 30
O=S(=O)(c1cnc2c(F)cccc2c1)c1ccccc1N1CC(O)C1 [Example 38, 1-[2-[(8-Fluoro-3-quinolyl)sulfonyl]phenyl]azetidin-3-ol] | 100 to 500 | –
O=S(=O)(c1ccccc1)c1cnc2c(N3CCC[C@H](O)C3)cccc2c1 [Example 22, (3S)-1-[3-(Benzenesulfonyl)-8-quinolyl]piperidin-3-ol] | 10 to 100 | 30 to 60
O=C(O)[C@H]1CCN(c2cccc3cc(S(=O)(=O)c4cccc(C(F)(F)F)c4)cnc23)C1 [Example 11, (3S)-1-[3-[3-(Trifluoromethyl)phenyl]sulfonyl-8-quinolyl]pyrrolidine-3-carboxylic Acid] | 10 to 100 | –
O=S(=O)(c1cccc(OC(F)F)c1)c1cnc2c(N3CCC(O)CC3)cccc2c1 [Example 29, 1-[3-[3-(Difluoromethoxy)phenyl]sulfonyl-8-quinolyl]piperidin-4-ol] | < 10 | < 30
O=S(=O)(c1ccccc1)c1cnc2c(N3CC[C@H](O)C3)cccc2c1 [Example 30, (3S)-1-[3-(Benzenesulfonyl)-8-quinolyl]pyrrolidin-3-ol] | < 10 | 60 to 120
O=S(=O)(c1ccccc1)c1cnc2c(N3C[C@H](O)[C@@H](O)C3)cccc2c1 [Example 32, (3S,4S)-1-[3-(Benzenesulfonyl)-8-quinolyl]pyrrolidine-3,4-diol] | < 10 | 30 to 60
COc1ccccc1S(=O)(=O)c1cnc2c(N3CC(O)C3)cccc2c1 [Example 39, 1-[3-(2-Methoxyphenyl)sulfonyl-8-quinolyl]azetidin-3-ol] | 10 to 100 | 60 to 120
O=S(=O)(c1ccccc1)c1cnc2c(N3C[C@H](O)C[C@H](O)C3)cccc2c1 [Example 36, (3R,5S)-1-[3-(Benzenesulfonyl)-8-quinolyl]piperidine-3,5-diol] | < 10 | < 30
COc1ccc(C)cc1S(=O)(=O)c1cnc2c(N3CC(O)C3)cccc2c1 [Example 40, 1-[3-(2-Methoxy-5-methyl-phenyl)sulfonyl-8-quinolyl]azetidin-3-ol] | 10 to 100 | –
COc1cccc(S(=O)(=O)c2cnc3c(N4CC(O)C4)cccc3c2)c1 [Example 14, 1-[3-(3-Methoxyphenyl)sulfonyl-8-quinolyl]azetidin-3-ol] | 10 to 100 | –

Now from value to molecule:

Ki (h-5-HT6 receptor) [nM] | microsomal CLint at 0.5 μM [1] [µL/min/mg] | Structure (SMILES)
< 10 | 30 to 60 | O=S(=O)(c1cccc(F)c1)c1cnc2c(N3CC(O)C3)cccc2c1 [Example 10, 1-[3-(3-Fluorophenyl)sulfonyl-8-quinolyl]azetidin-3-ol]
< 10 | < 30 | O=S(=O)(c1ccccc1)c1cnc2c(N3CC[C@@H](O)[C@@H](O)C3)cccc2c1 [Example 41, (3S,4R)-1-[3-(Benzenesulfonyl)-8-quinolyl]piperidine-3,4-diol]
10 to 100 | 60 to 120 | O=S(=O)(c1cccc(N2CCC(O)CC2)c1)c1cnc2c(F)cccc2c1 [Example 24, 1-[3-[(8-Fluoro-3-quinolyl)sulfonyl]phenyl]piperidin-4-ol]
< 10 | 30 to 60 | O=S(=O)(c1ccccc1)c1cnc2c(N3CCC[C@@H](O)C3)cccc2c1 [Example 23, (3R)-1-[3-(Benzenesulfonyl)-8-quinolyl]piperidin-3-ol]
< 10 | < 30 | O=C(O)C1CCN(c2cccc3cc(S(=O)(=O)c4cccc(C(F)(F)F)c4)cnc23)CC1 [Example 3, 1-[3-(3-Trifluoromethyl-benzenesulfonyl)-quinolin-8-yl]-piperidine-4-carboxylic Acid]
< 10 | 30 to 60 | O=S(=O)(c1cccc(C(F)(F)F)c1)c1cnc2c(N3CC(O)C3)cccc2c1 [Example 8, 1-[3-[3-(Trifluoromethyl)phenyl]sulfonyl-8-quinolyl]azetidin-3-ol]
< 10 | 60 to 120 | O=S(=O)(c1cccc(C(F)(F)F)c1)c1cnc2c(N3CCC[C@H](O)C3)cccc2c1 [Example 4, (S)-1-[3-(3-Trifluoromethyl-benzenesulfonyl)-quinolin-8-yl]-piperidin-3-ol Hydrochloride]
< 10 | 60 to 120 | CC1(O)CCN(c2cccc3cc(S(=O)(=O)c4cccc(C(F)(F)F)c4)cnc23)CC1 [Example 7, 4-Methyl-1-[3-[3-(trifluoromethyl)phenyl]sulfonyl-8-quinolyl]piperidin-4-ol Hydrochloride]
< 10 | < 30 | O=S(=O)(c1cccc(F)c1)c1cnc2c(N3CCC(O)CC3)cccc2c1 [Example 9, 1-[3-(3-Fluorophenyl)sulfonyl-8-quinolyl]piperidin-4-ol]
< 10 | 60 to 120 | O=S(=O)(c1cccc(C(F)(F)F)c1)c1cnc2c(N3CCC(O)C3)cccc2c1 (stereo not shown) [Example 2, 1-[3-(3-Trifluoromethyl-benzenesulfonyl)-quinolin-8-yl]-pyrrolidin-3-ol]
< 10 | – | O=S(=O)(c1cccc(F)c1)c1cnc2c(N3CC[C@H](O)C3)cccc2c1 [Example 26, (3S)-1-[3-(3-Fluorophenyl)sulfonyl-8-quinolyl]pyrrolidin-3-ol]
< 10 | 60 to 120 | O=S(=O)(c1cccc(C(F)(F)F)c1)c1cnc2c(N3CCC[C@@H](O)C3)cccc2c1 [Example 5, (R)-1-[3-(3-Trifluoromethyl-benzenesulfonyl)-quinolin-8-yl]-piperidin-3-ol]
< 10 | – | NC(=O)C1CCCN(c2cccc3cc(S(=O)(=O)c4cccc(C(F)(F)F)c4)cnc23)C1 (stereo not shown) [Example 46, 1-[3-(3-Trifluoromethyl-benzenesulfonyl)-quinolin-8-yl]-piperidine-3-carboxylic Acid Amide]
10 to 100 | – | O=S(=O)(c1cnc2c(F)cccc2c1)c1ccccc1N1CCC(O)CC1 [Example 25, 1-[2-[(8-Fluoro-3-quinolyl)sulfonyl]phenyl]piperidin-4-ol]
10 to 100 | – | COc1ccc(C)cc1S(=O)(=O)c1cnc2c(N3CCC(O)CC3)cccc2c1 [Example 35, 1-[3-(2-Methoxy-5-methyl-phenyl)sulfonyl-8-quinolyl]piperidin-4-ol]
